Values of other authors in patent US20220273646A1, “PHARMACEUTICAL COMPOSITION OF TEMOZOLOMIDE” (INTAS PHARMACEUTICALS LTD., priority 2019, published 2022).
Like-named read-outs stand apart in the source and are kept apart here.

Key:
[1] = extemporaneously prepared oral suspensions from capsules, 4° C.
[2] = solution from powder for intravenous infusion

time found chemically stable [1]: at least 60 days | temozolomide remained intact ([2]; 1.25 mg/mL, 13 weeks at 5° C.): more than 90% | temozolomide remained intact ([2]; 2.5 mg/mL, 9 days at room temperature): more than 90%
Structure (SMILES): Cn1nnc2c(C(N)=O)ncn2c1=O [Temozolomide, 4-methyl-5-oxo-2,3,4,6,8-pentazabicyclo[4.3.0] nona-2,7,9-triene-9-carboxamide]
